Data as given in patent publication US5602100A, “Dermorphin analogs having pharmacological activity” (priority 1988, dated 1997).
Non-standard residues stand in square brackets, D forms with d. Residues, ends and D or L forms follow the SMILES beside them. dDab = NCC[C@@H](N)C(=O)O; dNva = CCC[C@@H](N)C(=O)O; Orn = NCCC[C@H](N)C(=O)O; Dab = NCC[C@H](N)C(=O)O

Columns and labels:
[1] = target: T1, μ-opioid receptor (Rattus norvegicus, UniProt P33535); assay: biochemical; type: binding
T1 construct: displacement of the radioligands from the rat brain membrane preparations; from tissue; host or cells: rat brain membrane preparations

[2] = target: T2, δ-opioid receptor (Rattus norvegicus, UniProt P33533); assay: biochemical; type: binding
T2 construct: displacement of the radioligands from the rat brain membrane preparations; from tissue; host or cells: rat brain membrane preparations

[3] = test system: PBQ-induced writhing; assay: Mouse writhing test (PBQ); type: in vivo; conditions: dose reducing the number of writhes by 50%
Protocol: The mouse writhing test detects both peripherally and centrally mediated analgesic effects. The test procedure is described in Siegmund et al., Proc. Soc. Exp. Biol. Med., 95, p. 729 (1957). In this test, a control group of albino mice was injected intraperitoneally with 0.3 ml/20 g body weight of a 0.02% solution of 2-phenyl-1,4-benzoquinone (PBQ). The writhing and contortional movements of the mice over the following 15 minutes were recorded. A second group of mice was given a dose of a synthetic dermorphin analog according to this invention, then allowed to wait a period of time before being administered the PBQ injection. The average number of writhes was then recorded and compared to the control group. The results of this test are expressed as the dosage of peptide that reduces the number of writhes by 50% at a given time interval (referred to as ED50).

[4] = test system: hot plate stimulus; assay: Mouse hot plate test; type: in vivo
Protocol: The mouse hot plate test is an assay which only detects centrally-mediated analgesic effects. This test was carried out using the protocol described in G. Woolfe and A. MacDonald, J. Pharmacol. Exp. Ther., 80, p. 300 ([…]).
Since most of the peptides of the invention were not potent centrally, it was impossible to determine an ED50 value. […] A result is considered insignificant if 30% of mice or lower have responded.

T1 sequence (P33535 whole entry): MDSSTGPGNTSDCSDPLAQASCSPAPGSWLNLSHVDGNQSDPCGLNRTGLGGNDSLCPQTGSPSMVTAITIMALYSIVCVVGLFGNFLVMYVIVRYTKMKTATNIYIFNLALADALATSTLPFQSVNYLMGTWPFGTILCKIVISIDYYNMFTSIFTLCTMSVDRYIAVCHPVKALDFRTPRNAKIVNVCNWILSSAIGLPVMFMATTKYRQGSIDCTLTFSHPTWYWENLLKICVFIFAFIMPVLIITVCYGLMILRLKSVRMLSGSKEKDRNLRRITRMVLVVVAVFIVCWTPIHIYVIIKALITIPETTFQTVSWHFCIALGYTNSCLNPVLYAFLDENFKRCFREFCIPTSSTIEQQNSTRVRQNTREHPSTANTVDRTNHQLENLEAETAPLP
T2 sequence (P33533 whole entry): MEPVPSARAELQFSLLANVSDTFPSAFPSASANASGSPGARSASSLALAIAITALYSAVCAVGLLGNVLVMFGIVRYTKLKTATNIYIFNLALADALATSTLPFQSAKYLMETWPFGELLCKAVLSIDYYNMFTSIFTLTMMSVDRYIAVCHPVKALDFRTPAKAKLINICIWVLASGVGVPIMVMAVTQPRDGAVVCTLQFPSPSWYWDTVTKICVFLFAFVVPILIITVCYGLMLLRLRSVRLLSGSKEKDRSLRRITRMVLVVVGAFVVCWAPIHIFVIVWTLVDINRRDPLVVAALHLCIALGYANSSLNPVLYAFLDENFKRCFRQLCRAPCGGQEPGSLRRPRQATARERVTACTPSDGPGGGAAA

Structure (SMILES)	Ki [1] [nM]	Ki^δ /Ki^μ [1]	Ki [2] [nM]	PBQ (20 min.) ED50 [3]	% of animals showing a 50% increase ([4]; dose 40 mg/kg, time 120 min.) [%]	% of animals showing a 50% increase ([4]; dose 40 mg/kg, time 30 min.) [%]	% of animals showing a 50% increase ([4]; dose 100 mg/kg, time 50 min.) [%]	% of animals showing a 50% increase ([4]; dose 100 mg/kg, time 30 min.) [%]	% of animals showing a 50% increase ([4]; dose 40 mg/kg, time 60 min.) [%]	% of animals showing a 50% increase ([4]; dose 100 mg/kg, time 60 min.) [%]	Kd ([2]; read-out: Dissociation constant of radioligand) [nM]
N=C(N)NCCC[C@H](NC(=O)[C@H](Cc1ccccc1)NC(=O)[C@@H](CCCNC(=N)N)NC(=O)[C@@H](N)Cc1ccc(O)cc1)C(N)=O [BCH-1766, H-Tyr-D-Arg-Phe-Arg-NH2] (H-Y[dR]FR-NH2)	98.8	121	12000								
CC[C@@H](C)[C@@H](NC(=O)[C@@H](N)Cc1ccc(O)cc1)C(=O)N[C@@H](Cc1ccccc1)C(=O)N[C@@H](CCCCN)C(N)=O [BCH-2203, H-Tyr-D-Ile-Phe-Lys-NH2] (H-Y[dI]FK-NH2)	7.49	> 338	> 2530	0.8 mg/kg	80						
CC(C)C[C@@H](NC(=O)[C@@H](N)Cc1ccc(O)cc1)C(=O)N[C@@H](Cc1ccccc1)C(=O)N[C@@H](CCCCN)C(N)=O [BCH-2207, H-Tyr-D-Leu-Phe-Lys-NH2] (H-Y[dL]FK-NH2)	168	> 15	> 2530			20	0				
NCCCC[C@H](NC(=O)[C@H](Cc1ccccc1)NC(=O)[C@@H](CO)NC(=O)[C@@H](N)Cc1ccc(O)cc1)C(N)=O [BCH-2209, H-Tyr-D-Ser-Phe-Lys-NH2] (H-Y[dS]FK-NH2)	24.1	> 105	> 2530	2.8 mg/kg		40		40			
C[C@@H](NC(=O)[C@@H](N)Cc1ccc(O)cc1)C(=O)N[C@@H](Cc1ccccc1)C(=O)N[C@@H](CCCN)C(N)=O [BCH-2219, H-Tyr-D-Ala-Phe-Orn-NH2] (H-Y[dA]F[Orn]-NH2)	10.7	924.51	9880	~ 1 mg/Kg		60					
CC[C@@H](C)[C@@H](NC(=O)[C@@H](N)Cc1ccc(O)cc1)C(=O)N[C@@H](Cc1ccccc1)C(=O)N[C@@H](CCCN)C(N)=O [BCH-2456, H-Tyr-D-Ile-Phe-Orn-NH2] (H-Y[dI]F[Orn]-NH2)	4.49	952.35	4280	0.6 mg/kg					40	50	
NCCC[C@H](NC(=O)[C@H](Cc1ccccc1)NC(=O)[C@@H](Cc1ccccc1)NC(=O)[C@@H](N)Cc1ccc(O)cc1)C(N)=O [BCH-2457, H-Tyr-D-Phe-Phe-Orn-NH2] (H-Y[dF]F[Orn]-NH2)	7.39	333.37	2460	1.8 mg/kg					40		
CC(C)[C@@H](NC(=O)[C@@H](N)Cc1ccc(O)cc1)C(=O)N[C@@H](Cc1ccccc1)C(=O)N[C@@H](CCCN)C(N)=O [BCH-2458, H-Tyr-D-Val-Phe-Orn-NH2] (H-Y[dV]F[Orn]-NH2)	13.3	658.27	8780	1.0 mg/kg		30				55	
CC(C)C[C@@H](NC(=O)[C@@H](N)Cc1ccc(O)cc1)C(=O)N[C@@H](Cc1ccccc1)C(=O)N[C@@H](CCCN)C(N)=O [BCH-2459, H-Tyr-D-Leu-Phe-Orn-NH2] (H-Y[dL]F[Orn]-NH2)	77.5	240.10	18600								
NCCCC[C@H](NC(=O)[C@H](Cc1ccccc1)NC(=O)[C@@H](Cc1ccccc1)NC(=O)[C@@H](N)Cc1ccc(O)cc1)C(N)=O [BCH-2460, H-Tyr-D-Phe-Phe-Lys-NH2] (H-Y[dF]FK-NH2)	19	99.47	1900	~ 3 mg/Kg							
NCCC[C@H](NC(=O)[C@H](Cc1ccccc1)NC(=O)[C@@H](CO)NC(=O)[C@@H](N)Cc1ccc(O)cc1)C(N)=O [BCH-2461, H-Tyr-D-Ser-Phe-Orn-NH2] (H-Y[dS]F[Orn]-NH2)	13.2	1210.57	15900	0.7 mg/kg		50					
NCC[C@H](NC(=O)[C@H](Cc1ccccc1)NC(=O)[C@@H](Cc1ccccc1)NC(=O)[C@@H](N)Cc1ccc(O)cc1)C(N)=O [BCH-2466, H-Tyr-D-Phe-Phe-A2 bu-NH2] (H-Y[dF]F[Dab]-NH2)	2.81	507.59	1420	0.2 mg/kg					80		
CC(C)[C@@H](NC(=O)[C@@H](N)Cc1ccc(O)cc1)C(=O)N[C@@H](Cc1ccccc1)C(=O)N[C@@H](CCN)C(N)=O [BCH-2467, H-Tyr-D-Val-Phe-A2 bu-NH2] (H-Y[dV]F[Dab]-NH2)	2.64	1113.55	6280	2 mg/kg					90		
CC[C@@H](C)[C@@H](NC(=O)[C@@H](N)Cc1ccc(O)cc1)C(=O)N[C@@H](Cc1ccccc1)C(=O)N[C@@H](CCN)C(N)=O [BCH-2468, H-Tyr-D-Ile-Phe-A2 bu-NH2] (H-Y[dI]F[Dab]-NH2)	9.7	260.61	2530	3 to 10 mg/kg							
NCC[C@H](NC(=O)[C@H](Cc1ccccc1)NC(=O)[C@@H](CO)NC(=O)[C@@H](N)Cc1ccc(O)cc1)C(N)=O [BCH-2469, H-Tyr-D-Ser-Phe-A2 bu-NH2] (H-Y[dS]F[Dab]-NH2)	5.11	1071.20	5480	1.5 mg/kg					90		
C[C@@H](NC(=O)[C@@H](N)Cc1ccc(O)cc1)C(=O)N[C@@H](Cc1ccccc1)C(=O)N[C@@H](CCN)C(N)=O [BCH-2470, H-Tyr-D-Ala-Phe-A2 bu-NH2] (H-Y[dA]F[Dab]-NH2)	5.91	630.58	3730	0.3 mg/kg	90						
CCC[C@@H](NC(=O)[C@@H](N)Cc1ccc(O)cc1)C(=O)N[C@@H](Cc1ccccc1)C(=O)N[C@@H](CCN)C(N)=O [BCH-2471, H-Tyr-D-Nva-Phe-A2 bu-NH2] (H-Y[dNva]F[Dab]-NH2)	0.56	790.51	441	0.2 mg/kg					100		
CC(C)C[C@@H](NC(=O)[C@@H](N)Cc1ccc(O)cc1)C(=O)N[C@@H](Cc1ccccc1)C(=O)N[C@@H](CCN)C(N)=O [BCH-2474, H-Tyr-D-Leu-Phe-A2 bu-NH2] (H-Y[dL]F[Dab]-NH2)	69.8	186.98	13100	> 10 mg/kg							
NCCC[C@H](NC(=O)[C@H](Cc1ccccc1)NC(=O)[C@@H](CCN)NC(=O)[C@@H](N)Cc1ccc(O)cc1)C(N)=O [BCH-2580, H-Tyr-D-A2 bu-Phe-Orn-NH2] (H-Y[dDab]F[Orn]-NH2)		411.98		1.2 mg/kg					80		
N=C(N)NCCC[C@@H](NC(=O)[C@@H](N)Cc1ccc(O)cc1)C(=O)N[C@@H](Cc1ccccc1)C(=O)N[C@@H](Cc1ccccc1)C(N)=O [BCH-2687, H-Tyr-D-Arg-Phe-Phe-NH2] (H-Y[dR]FF-NH2)									70		
N=C(N)NCCC[C@@H](NC(=O)[C@@H](N)Cc1ccc(O)cc1)C(=O)N[C@@H](Cc1ccccc1)C(=O)N[C@@H](CO)C(N)=O [BCH-2688, H-Tyr-D-Arg-Phe-Ser-NH2] (H-Y[dR]FS-NH2)									100		
CC(C)C[C@H](NC(=O)[C@H](Cc1ccccc1)NC(=O)CNC(=O)[C@@H](CO)NC(=O)[C@@H](N)Cc1ccc(O)cc1)C(=O)N[C@H](C(=O)O)[C@@H](C)O [[^3 H]DSLET, reference compound]											2.6
